Measured values: US9475766B2, “Substituted aromatic sulfur compounds and methods of their use” (Cephalon, Inc., priority 2011, dated 2016)

Experiments:
Assay type in all cases: cell-based
[1] = test system: HT29 colon cancer cell line; assay: Cell survival and adhesion assay (luciferase), HT29; details: HT-29, 5 hours, HT29 cells overlayed onto human mesothelial cell monolayers, read-out: relative reduction in Luciferase activity, HT29 10 μM
Protocol: (§1) SU86 is a pancreatic cancer cell line. HT29 is a colon cancer cell line. BxPC3 is a pancreatic cell line. A2780 is an ovarian cancer cell line.
(§2) BxPc-3 and Su.86.86 pancreatic and HT-29 colon and A2780 ovarian cancer cell lines were purchased from ATCC and cultured in DMEM supplemented with 10% fetal bovine serum, glutamine, penicillin, and streptomycin. All cells were cultured at 37° C. in a humidified incubator in a 5% CO2 atmosphere. The cancer cell lines were transduced with a retrovirus containing pLuc-puro, a constitutive luciferase reporter and selected in […] media. Transient transfection of a full-length human c-FLIP construct in the vector pcDNA3 was performed as previously described. Scaife et al. Cancer Research 2002, 62: 6870-78.
(§3) Pancreatic cancer cell cultures (BxPc-3 and Su.86.86) and colon cancer (HT-29) and ovarian cancer (A2780) cells that were stably transfected with a firefly luciferase construct were transiently suspended with trypsin-PBS. 10^5 cells were overlayed onto confluent monolayers of human mesothelial cells in 96-well plates while simultaneously adding various concentrations of compounds of the invention or DMSO for 5 hours. The non-adherent cells were carefully washed away from the wells twice with 100 μl/well of blocking buffer (1% BSA in PBS) and twice again with ice-cold PBS. Adherent and surviving cells were detected by luciferase activity in a luminometer as follows. The cells were lysed in 0.1% TritonX-100, 25 mM Gly-Gly (7.8), MgSO4, 4 mM EGTA, 1 mM DTT. The total protein concentration was normalized with lysis buffer. 50 μl of cell lysate was added per well of a 96-well microtiter plate. 50 μl of luciferin substrate (Promega) was added per well and then the light output determined in a luminometer.

[2] = test system: A2780 ovarian cancer cell line; assay: Cell survival and adhesion assay (luciferase), A2780; details: 5 hours, A2780 cells overlayed onto human mesothelial cell monolayers, read-out: relative reduction in Luciferase activity, A2780 10 μM
Protocol: as §1, §2, §3

[3] = test system: BxPC3 pancreatic cell line; assay: Cell survival and adhesion assay (luciferase), BxPC3; details: BXPC-3, 5 hours, BxPC3 cells overlayed onto human mesothelial cell monolayers, read-out: relative reduction in Luciferase activity, BxPC3 10 μM
Protocol: as §1, §2, §3

[4] = test system: SU86 pancreatic cancer cell line (Su.86.86); assay: Cell survival and adhesion assay (luciferase), SU86; details: 5 hours, SU86 cells overlayed onto human mesothelial cell monolayers, read-out: relative reduction in Luciferase activity, SU86 10 μM
Protocol: as §1, §2, §3

| Compound | inhibition at 10 µM [1] | inhibition at 10 µM [2] | inhibition at 10 µM [3] | inhibition at 10 µM [4] |
| --- | --- | --- | --- | --- |
| CC(C)(C(=O)NCc1cccs1)c1ccc(S(=O)(=O)/C=C/C#N)cc1 [Example 15, 2-[4-((E)-2-Cyano-ethenesulfonyl)-phenyl]-N-thiophen-2-ylmethyl-isobutyramide] | < 10% | > 85% | 50 to 85% | 50 to 85% |
| CC(C)(C)OC(=O)NCCNC(=O)C(C)(C)c1ccc(S(=O)(=O)/C=C/C#N)cc1 [Example 32, (2-{2-[4-((E)-2-Cyano-ethenesulfonyl)-phenyl]-2-methyl-propionylamino}-ethyl)-carbamic acid tert-butyl ester] | 50 to 85% |  | 10 to 50% | 10 to 50% |
| CC(C)(C(=O)NCC(F)F)c1ccc(S(=O)(=O)/C=C/C#N)cc1 [Example 11, 2-[4-((E)-2-Cyano-ethenesulfonyl)-phenyl]-N-(2,2-difluoro-ethyl)-isobutyramide] | < 10% | 10 to 50% | 10 to 50% | 10 to 50% |
| COc1cccc(CNC(=O)C(C)(C)c2ccc(S(=O)(=O)/C=C/C#N)cc2)c1 [Example 44, 2-[4-((E)-2-Cyano-ethenesulfonyl)-phenyl]-N-(3-methoxy-benzyl)-isobutyramide] | > 85% |  | > 85% | 50 to 85% |
| CC(C)(C)c1cccc(S(=O)(=O)/C=C/C#N)c1 [Example 54, (E)-3-(3-tert-Butyl-benzenesulfonyl)-acrylonitrile] | < 10% | > 85% | > 85% | > 85% |
| CC(C)(c1ccc(S(=O)(=O)/C=C/C#N)cc1)c1nnc(C2CCCCC2)o1 [Example 53, (E)-3-{4-[1-(5-Cyclohexyl-[1,3,4]oxadiazol-2-yl)-1-methyl-ethyl]-benzenesulfonyl}-acrylonitrile] | > 85% |  | > 85% | 50 to 85% |
| COCCOCc1ccc(NC(=O)C(C)(C)c2ccc(S(=O)(=O)/C=C/C#N)cc2)cc1 [Example 31, 2-[4-((E)-2-Cyano-ethenesulfonyl)-phenyl]-N-[4-(2-methoxy-ethoxymethyl)-phenyl]-isobutyramide] | 50 to 85% |  | 50 to 85% | 10 to 50% |
| CC(C)(C(=O)NCc1ccc(S(N)(=O)=O)cc1)c1ccc(S(=O)(=O)/C=C/C#N)cc1 [Example 26, 2-[4-((E)-2-Cyano-ethenesulfonyl)-phenyl]-N-(4-sulfamoyl-benzyl)-isobutyramide] | < 10% |  | < 10% | < 10% |
| C#CCCNC(=O)C(C)(C)c1ccc(S(=O)(=O)/C=C/C#N)cc1 [Example 80, N-But-3-ynyl-2-[4-((E)-2-cyano-ethenesulfonyl)-phenyl]-isobutyramide] | > 85% | 50 to 85% | 50 to 85% | 10 to 50% |
| COc1ccccc1CN(C)C(=O)C(C)(C)c1ccc(S(=O)(=O)/C=C/C#N)cc1 [Example 46, 2-[4-((E)-2-Cyano-ethenesulfonyl)-phenyl]-N-(2-methoxy-benzyl)-N-methyl-isobutyramide] | > 85% |  | > 85% | 50 to 85% |
| CC(C)(C(=O)NCc1ccccc1F)c1ccc(S(=O)(=O)/C=C/C#N)cc1 [Example 40, 2-[4-((E)-2-Cyano-ethenesulfonyl)-phenyl]-N-(2-fluoro-benzyl)-isobutyramide] | > 85% |  | > 85% | 50 to 85% |
| Cc1ccc2oc(C(C)(C)c3ccc(S(=O)(=O)/C=C/C#N)cc3)nc2c1 [Example 50, (E)-3-{4-[1-Methyl-1-(5-methyl-benzoxazol-2-yl)-ethyl]-benzenesulfonyl}-acrylonitrile] | > 85% |  | > 85% | 50 to 85% |
| CC(C)(C(=O)NCC#Cc1ccccc1)c1ccc(S(=O)(=O)/C=C/C#N)cc1 [Example 71, 2-[4-((E)-2-Cyano-ethenesulfonyl)-phenyl]-N-(3-phenyl-prop-2-ynyl)-isobutyramide] | > 85% | > 85% | > 85% | 50 to 85% |
| CC(C)(C)c1ccc(S/C=C/C#N)cc1 [Example 60, (E)-3-(4-tert-Butyl-phenylsulfanyl)-acrylonitrile] | < 10% | < 10% | < 10% | < 10% |
| Cc1ccc(O)c(NC(=O)C(C)(C)c2ccc(S(=O)(=O)/C=C/C#N)cc2)c1 [Example 69, 2-[4-((E)-2-Cyano-ethenesulfonyl)-phenyl]-N-(2-hydroxy-5-methyl-phenyl)-isobutyramide] | 50 to 85% | 50 to 85% | 10 to 50% | 10 to 50% |
| CC(C)(C(=O)N[C@H]1CCCCNC1=O)c1ccc(S(=O)(=O)/C=C/C#N)cc1 [Example 30, 2-[4-((E)-2-Cyano-ethenesulfonyl)-phenyl]-N—((S)-2-oxo-azepan-3-yl)-isobutyramide] | 50 to 85% |  | < 10% | < 10% |
| CC(C)(C(=O)NNC(=O)C1CCCCC1)c1ccc(S(=O)(=O)/C=C/C#N)cc1 [Example 52, Cyclohexanecarboxylic acid N′-{2-[4-((E)-2-cyano-ethenesulfonyl)-phenyl]-2-methyl-propionyl}-hydrazide] | 50 to 85% |  | < 10% | 10 to 50% |
| CN(Cc1ccc(F)cc1)C(=O)C(C)(C)c1ccc(S(=O)(=O)/C=C/C#N)cc1 [Example 41, 2-[4-((E)-2-Cyano-ethenesulfonyl)-phenyl]-N-(4-fluoro-benzyl)-N-methyl-isobutyramide] | > 85% |  | > 85% | 50 to 85% |
| CC(C)(C)OC(=O)NCCCCCCNC(=O)C(C)(C)c1ccc(S(=O)(=O)/C=C/C#N)cc1 [Example 33, (6-{2-[4-((E)-2-Cyano-ethenesulfonyl)-phenyl]-2-methyl-propionylamino}-hexyl)-carbamic acid tert-butyl ester] | 50 to 85% |  | 10 to 50% | < 10% |
| CC(C)(C(=O)N[C@H](CO)c1ccccc1)c1ccc(S(=O)(=O)/C=C/C#N)cc1 [Example 29, 2-[4-((E)-2-Cyano-ethenesulfonyl)-phenyl]-N—((S)-2-hydroxy-1-phenyl-ethyl)-isobutyramide] | 50 to 85% |  | < 10% | < 10% |
| Cc1cnc(C(C)(C)c2ccc(S(=O)(=O)/C=C/C#N)cc2)o1 [Example 51, (E)-3-{4-[1-Methyl-1-(5-methyl-oxazol-2-yl)-ethyl]-benzenesulfonyl}-acrylonitrile] | > 85% |  | > 85% | 50 to 85% |
| CC(C)(C(=O)Nc1cccc(OCC(=O)O)c1)c1ccc(S(=O)(=O)/C=C/C#N)cc1 [Example 43, (3-{2-[4-((E)-2-Cyano-ethenesulfonyl)-phenyl]-2-methyl-propionylamino}-phenoxy)-acetic acid] | < 10% |  | < 10% | < 10% |
| CC(C)(C(=O)N1CCCCC1)c1ccc(S(=O)(=O)/C=C/C#N)cc1 [Example 28, (E)-3-[4-(1,1-Dimethyl-2-oxo-2-piperidin-1-yl-ethyl)-benzenesulfonyl]-acrylonitrile] | > 85% |  | 50 to 85% | 10 to 50% |
| COCCOc1cccc(NC(=O)C(C)(C)c2ccc(S(=O)(=O)/C=C/C#N)cc2)c1 [Example 42, 2-[4-((E)-2-Cyano-ethenesulfonyl)-phenyl]-N-[3-(2-methoxy-ethoxy)-phenyl]-isobutyramide] | > 85% |  | 50 to 85% | 50 to 85% |
| COc1ccccc1CNC(=O)C(C)(C)c1ccc(S(=O)(=O)/C=C/C#N)cc1 [Example 45, 2-[4-((E)-2-Cyano-ethenesulfonyl)-phenyl]-N-(2-methoxy-benzyl)-isobutyramide] | > 85% |  | > 85% | 50 to 85% |
| CC(C)(C(=O)NCc1ccc(S(C)(=O)=O)cc1)c1ccc(S(=O)(=O)/C=C/C#N)cc1 [Example 27, 2-[4-((E)-2-Cyano-ethenesulfonyl)-phenyl]-N-(4-methanesulfonyl-benzyl)-isobutyramide] | 10 to 50% |  | < 10% | < 10% |
